Data taken from patent US9615576B2, “Pesticidal compositions and processes related thereto” (Dow AgroSciences LLC, priority 2011, dated 2017).

Assays:
[1] = tested on: Beet Armyworm (BAW) (Spodoptera exigua); assay: Bioassays on Beet Armyworm (BAW), 128-well diet tray assay; format: in vivo; settings: 168 h, 50 μg/cm^2 test compound on artificial diet, second instar larvae, 25° C., five to seven days, average of eight wells, read-out: BAW Rating (% mortality)
Procedure: (§1) Certain molecules disclosed in this document were tested against BAW and CEW using procedures described in the following examples. In the reporting of the results, the “BAW & CEW Rating Table” was used (See Table Section).
Bioassays on BAW (Spodoptera exigua)
Bioassays on BAW were conducted using a 128-well diet tray assay. one to five second instar BAW larvae were placed in each well (3 mL) of the diet tray that had been previously filled with 1 mL of artificial diet to which 50 μg/cm^2 of the test compound (dissolved in 50 μL of 90:10 acetone-water mixture) had been applied (to each of eight wells) and then allowed to dry. Trays were covered with a clear self-adhesive cover, and held at 25° C., 14:10 light-dark for five to seven days. Percent mortality was recorded for the larvae in each well; activity in the eight wells was then averaged. The results are indicated in the table entitled “Table 3: Assay Results” (See Table Section).

[2] = tested on: Corn Earworm (CEW) (Helicoverpa zea); assay: Bioassays on Corn Earworm (CEW), 128-well diet tray assay; format: in vivo; settings: 168 h, 50 μg/cm^2 test compound on artificial diet, second instar larvae, 25° C., five to seven days, average of eight wells, read-out: CEW Rating (% mortality)
Procedure: as §1
Bioassays on CEW (Helicoverpa zea)
Bioassays on CEW were conducted using a 128-well diet tray assay. one to five second instar CEW larvae were placed in each well (3 mL) of the diet tray that had been previously filled with 1 mL of artificial diet to which 50 μg/cm^2 of the test compound (dissolved in 50 μL of 90:10 acetone-water mixture) had been applied (to each of eight wells) and then allowed to dry. Trays were covered with a clear self-adhesive cover, and held at 25° C., 14:10 light-dark for five to seven days. Percent mortality was recorded for the larvae in each well; activity in the eight wells was then averaged. The results are indicated in the table entitled “Table 3: Assay Results” (See Table Section).

| Compound | mortality at 50 µg/cm2 [1] | mortality at 50 µg/cm2 [2] |
| --- | --- | --- |
| CNC(=O)c1ccc(/C=C/C(c2cc(Cl)cc(Cl)c2)C(F)(F)F)cc1 (stereo not drawn) [AC1] | 0% | 0% |
| CN(C)C(=O)c1ccc(/C=C/C(c2cc(Cl)cc(Cl)c2)C(F)(F)F)cc1 (stereo not drawn) [AC3] | 0% | 0% |
| O=C(NCC(F)(F)F)c1ccc(/C=C/C(c2cc(Cl)cc(Cl)c2)C(F)(F)F)cc1 (stereo not drawn) [AC4] | 0% | 50 to 100% |
| O=C(c1ccc(/C=C/C(c2cc(Cl)cc(Cl)c2)C(F)(F)F)cc1)N1CCOCC1 (stereo not drawn) [AC5] | 0% | 0% |
| Cc1cc(/C=C/C(c2cc(Cl)cc(Cl)c2)C(F)(F)F)ccc1C(=O)NCC(F)(F)F (stereo not drawn) [AC6, (E)-4-(3-(3,5-dichlorophenyl)-4,4,4-trifluorobut-1-enyl)-2-methyl-N-(2,2,2-trifluoroethyl)benzamide] | 0% | 50 to 100% |
| Cc1cc(/C=C/C(c2cc(Cl)cc(Cl)c2)C(F)(F)F)ccc1C(=O)NCc1ccc(Cl)nc1 (stereo not drawn) [AC7] | 50 to 100% | 50 to 100% |
| Cc1cc(/C=C/C(c2cc(Cl)cc(Cl)c2)C(F)(F)F)ccc1C(=O)N1CCCC1=O (stereo not drawn) [AC8] | 0% | 0 to 50% |
| Cc1cc(/C=C/C(c2cc(Cl)cc(Cl)c2)C(F)(F)F)ccc1C(=O)NCc1ccccc1F (stereo not drawn) [AC9] | 50 to 100% | 50 to 100% |
| Cc1cc(/C=C/C(c2cc(Cl)cc(Cl)c2)C(F)(F)F)ccc1C(=O)NC1CSC1 (stereo not drawn) [AC10] | 50 to 100% | 50 to 100% |
| Cc1cc(/C=C/C(c2cc(Cl)cc(Cl)c2)C(F)(F)F)ccc1C(=O)NCc1ccccc1 (stereo not drawn) [AC11] | 50 to 100% | 50 to 100% |
| Cc1cc(/C=C/C(c2cc(Cl)cc(Cl)c2)C(F)(F)F)ccc1C(=O)NCc1ccccn1 (stereo not drawn) [AC12] | 50 to 100% | 50 to 100% |
| Cc1cc(/C=C/C(c2cc(Cl)cc(Cl)c2)C(F)(F)F)ccc1C(=O)NC1CS(=O)(=O)C1 (stereo not drawn) [AC13] | 50 to 100% | 50 to 100% |
| Cc1cc(/C=C/C(c2cc(Cl)cc(Cl)c2)C(F)(F)F)ccc1C(=O)NCc1cccnc1 (stereo not drawn) [AC14] | 50 to 100% | 0 to 50% |
| Cc1cc(/C=C/C(c2cc(Cl)cc(Cl)c2)C(F)(F)F)ccc1C(=O)NCc1cnc(Cl)s1 (stereo not drawn) [AC15] | 50 to 100% | 50 to 100% |
| Cc1cc(/C=C/C(c2cc(Cl)cc(Cl)c2)C(F)(F)F)ccc1C(=O)NC(C)(C)c1ccccn1 (stereo not drawn) [AC16] | 50 to 100% | 50 to 100% |
| Cc1cc(/C=C/C(c2cc(Cl)cc(Cl)c2)C(F)(F)F)ccc1C(=O)NNc1ccccc1F (stereo not drawn) [AC17] | 50 to 100% | 50 to 100% |
| Cc1cc(/C=C/C(c2cc(Cl)cc(Cl)c2)C(F)(F)F)ccc1C(=O)NCc1ncccn1 (stereo not drawn) [AC18] | 50 to 100% | 50 to 100% |
| Cc1cc(/C=C/C(c2cc(Cl)cc(Cl)c2)C(F)(F)F)ccc1C(=O)NCC1CCOC1 (stereo not drawn) [AC19] | 0% | 0% |
| Cc1cc(/C=C/C(c2cc(Cl)cc(Cl)c2)C(F)(F)F)ccc1C(=O)NCc1ccoc1 (stereo not drawn) [AC20] | 50 to 100% | 50 to 100% |
| Cc1cc(/C=C/C(c2cc(Cl)cc(Cl)c2)C(F)(F)F)ccc1C(=O)NOCc1ccc(Cl)nc1 (stereo not drawn) [AC21] | 0% | 0% |
| Cc1cc(/C=C/C(c2cc(Cl)c(Cl)c(Cl)c2)C(F)(F)F)ccc1C(=O)NCc1ccc(Cl)nc1 (stereo not drawn) [AC22] | 50 to 100% | 50 to 100% |
| Cc1cc(/C=C/C(c2cc(Cl)c(Cl)c(Cl)c2)C(F)(F)F)ccc1C(=O)NC1CSC1 (stereo not drawn) [AC23] | 50 to 100% | 50 to 100% |
| Cc1cc(/C=C/C(c2cc(Cl)cc(Cl)c2)C(F)(F)F)ccc1C(=O)NCC(=O)NCC(F)(F)F (stereo not drawn) [AC24] | 50 to 100% | 50 to 100% |
| Cc1cc(/C=C/C(c2cc(Cl)c(Cl)c(Cl)c2)C(F)(F)F)ccc1C(=O)NC1CS(=O)(=O)C1 (stereo not drawn) [AC25] | 50 to 100% | 50 to 100% |
| Cc1cc(/C=C/C(c2cc(Cl)c(Cl)c(Cl)c2)C(F)(F)F)ccc1C(=O)NCc1cnc(Cl)s1 (stereo not drawn) [AC26] | 50 to 100% | 50 to 100% |
| Cc1cc(/C=C/C(c2cc(Cl)c(Cl)c(Cl)c2)C(F)(F)F)ccc1C(=O)NC(C)(C)c1ccccn1 (stereo not drawn) [AC27] | 50 to 100% | 50 to 100% |

| Compound | mortality at 50 µg/cm2 [1] | mortality at 50 µg/cm2 [2] |
| --- | --- | --- |
| O=C(NCc1ccc(Cl)nc1)c1ccc(/C=C/C(c2cc(Cl)c(Cl)c(Cl)c2)C(F)(F)F)cc1Cl (stereo not drawn) [AC28] | 50 to 100% | 50 to 100% |
| O=C(NC1CSC1)c1ccc(/C=C/C(c2cc(Cl)c(Cl)c(Cl)c2)C(F)(F)F)cc1Cl (stereo not drawn) [AC29] | 50 to 100% | 50 to 100% |
| O=C(NC1CS(=O)(=O)C1)c1ccc(/C=C/C(c2cc(Cl)c(Cl)c(Cl)c2)C(F)(F)F)cc1Cl (stereo not drawn) [AC30] | 50 to 100% | 50 to 100% |
| O=C(NCc1ccc(Cl)nc1)c1ccc(/C=C/C(c2cc(Cl)c(Cl)c(Cl)c2)C(F)(F)F)cc1Br (stereo not drawn) [AC31] | 50 to 100% | 50 to 100% |
| O=C(NC1CSC1)c1ccc(/C=C/C(c2cc(Cl)c(Cl)c(Cl)c2)C(F)(F)F)cc1Br (stereo not drawn) [AC32] | 50 to 100% | 50 to 100% |
| O=C(NC1CS(=O)(=O)C1)c1ccc(/C=C/C(c2cc(Cl)c(Cl)c(Cl)c2)C(F)(F)F)cc1Br (stereo not drawn) [AC33] | 50 to 100% | 50 to 100% |
| O=C(NC1CSC1)c1ccc(/C=C/C(c2cc(Cl)c(Cl)c(Cl)c2)C(F)(F)F)cc1C(F)(F)F (stereo not drawn) [AC34] | 50 to 100% | 50 to 100% |
| O=C(NC1CS(=O)(=O)C1)c1ccc(/C=C/C(c2cc(Cl)c(Cl)c(Cl)c2)C(F)(F)F)cc1C(F)(F)F (stereo not drawn) [AC35] | 50 to 100% | 50 to 100% |
| O=C(NCc1ccc(Cl)nc1)c1ccc(/C=C/C(c2cc(Cl)c(Cl)c(Cl)c2)C(F)(F)F)cc1C(F)(F)F (stereo not drawn) [AC36] | 50 to 100% | 50 to 100% |
| Cc1cc(/C=C/C(c2ccc(Cl)c(Cl)c2)C(F)(F)F)ccc1C(=O)NCc1ccc(Cl)nc1 (stereo not drawn) [AC37] | 50 to 100% | 50 to 100% |
| Cc1cc(/C=C/C(c2cc(Cl)c(F)c(Cl)c2)C(F)(F)F)ccc1C(=O)NCc1ccc(Cl)nc1 (stereo not drawn) [AC38] | 50 to 100% | 50 to 100% |
| Cc1cc(/C=C/C(c2cc(Cl)cc(Cl)c2)C(F)(F)F)ccc1C(=O)NCc1cncnc1 (stereo not drawn) [AC39, 4-((E)-3-(3,5-dichlorophenyl)-4,4,4-trifluorobut-1-enyl)-2-methyl-N-((pyrimidin-5-yl)methyl)benzamide] | 50 to 100% | 50 to 100% |
| Cc1cc(/C=C/C(c2cc(Cl)cc(Cl)c2)C(F)(F)F)ccc1C(=O)NCC(=O)NC1CC1 (stereo not drawn) [AC40] | 50 to 100% | 50 to 100% |
| Cc1cc(/C=C/C(c2cc(Cl)cc(Cl)c2)C(F)(F)F)ccc1C(=O)NCC(=O)NC1CSC1 (stereo not drawn) [AC41] | 50 to 100% | 0% |
| Cc1cc(/C=C/C(c2cc(Cl)cc(Cl)c2)C(F)(F)F)ccc1C(=O)NCc1nc2ccccc2s1 (stereo not drawn) [AC42] | 50 to 100% | 0% |
| Cc1cc(/C=C/C(c2cc(Cl)cc(Cl)c2)C(F)(F)F)ccc1C(=O)NCc1cnccn1 (stereo not drawn) [AC43] | 50 to 100% | 50 to 100% |
| Cc1cc(/C=C/C(c2cc(Cl)cc(Cl)c2)C(F)(F)F)ccc1C(=O)NC(C)c1ccc(Cl)nc1 (stereo not drawn) [AC44] | 50 to 100% | 50 to 100% |
| Cc1cc(/C=C/C(c2cc(Cl)cc(Cl)c2)C(F)(F)F)ccc1C(=O)NN(C)c1ccccc1F (stereo not drawn) [AC45] | 50 to 100% | 50 to 100% |
| O=C(NCc1ccc(Cl)nc1)c1ccc(/C=C/C(c2cc(Cl)cc(Cl)c2)C(F)(F)F)cc1Br (stereo not drawn) [AC46] | 50 to 100% | 50 to 100% |
| Cc1cc(/C=C/C(c2cc(Cl)cc(Cl)c2)C(F)(F)F)ccc1C(=O)NCC(=O)NNC(=O)C1CC1 (stereo not drawn) [AC47] | 0% | 0% |
| Cc1cc(/C=C/C(c2cc(Cl)cc(Cl)c2)C(F)(F)F)ccc1C(=O)NCc1ccc(Cl)cc1 (stereo not drawn) [AC48] | 50 to 100% | 50 to 100% |
| O=C(NCc1ccc(Cl)nc1)c1ccc(/C=C/C(c2cc(Cl)cc(Cl)c2)C(F)(F)F)cc1F (stereo not drawn) [AC49] | 50 to 100% | 50 to 100% |
| Cc1cc(/C=C/C(c2cc(Cl)cc(Cl)c2)C(F)(F)F)ccc1C(=O)NCc1nccn1C (stereo not drawn) [AC50] | 50 to 100% | 0% |
| Cc1cc(/C=C/C(c2cc(Cl)cc(Cl)c2)C(F)(F)F)ccc1C(=O)NCC(=O)N(C)CC(F)(F)F (stereo not drawn) [AC51] | 50 to 100% | 50 to 100% |
| Cc1cc(/C=C/C(c2cc(Cl)c(F)c(Cl)c2)C(F)(F)F)ccc1C(=O)NC1CCOCC1 (stereo not drawn) [AC52] | 50 to 100% | 50 to 100% |
